What follows are compounds tested against T1, human OX2R (Homo sapiens, UniProt O43614) (assay: Measurement of OX2R agonist activity (intracellular calcium concentration change, Fluo4-AM, FDSS 7000)). Settings: compound concentration 10 μM; human OX2R-expressing CHO-K1 cells; 1 μM human orexin A peptide = 100%, medium alone = 0%.
T1 construct: expressed in transfected cells
T1 sequence (O43614 1-444): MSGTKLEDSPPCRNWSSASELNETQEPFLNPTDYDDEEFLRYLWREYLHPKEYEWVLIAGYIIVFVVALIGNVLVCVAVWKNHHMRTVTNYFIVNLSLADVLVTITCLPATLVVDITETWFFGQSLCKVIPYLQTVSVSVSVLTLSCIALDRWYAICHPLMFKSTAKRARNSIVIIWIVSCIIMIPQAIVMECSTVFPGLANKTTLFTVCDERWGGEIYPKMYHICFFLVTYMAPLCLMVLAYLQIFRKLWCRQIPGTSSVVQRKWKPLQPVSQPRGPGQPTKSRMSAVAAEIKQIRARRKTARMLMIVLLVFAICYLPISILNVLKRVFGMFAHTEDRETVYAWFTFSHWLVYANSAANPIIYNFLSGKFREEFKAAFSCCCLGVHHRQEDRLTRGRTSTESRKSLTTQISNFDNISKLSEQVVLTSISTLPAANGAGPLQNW
Type: cell-based
Text: The following abbreviations in the description, the figures and the tables have the following meanings, respectively. • AZADOL (registered trademark): 2-Hydroxy-2-azaadamantane • Boc2O: di-tert-butyl dicarbonate • DIPEA: N,N-diisopropylethylamine • DCM: dichloromethane • DMAP: 4-dimethylaminopyridine • DMF: N,N-dimethylformamide • DMSO: dimethylsulfoxide • Deoxo-Fluor: bis(2-methoxyethyl)-aminosulfur trifluoride • HATU: O-(7-azabenzotriazol-1-yl)-N,N,N′,N′-tetramethyluronium hexafluorophosphate • LDA: lithium diisopropylamide • MeCN: acetonitrile • Me4tBuXPhos: 2-di-tert-butylphosphino-3,4,5,6-tetramethyl-2′,4′,6′-triisopropyl-1,1′-biphenyl • MTBE: methyl tert-butyl ether • NMP: N-methylpyrrolidone • PdCl2(PPh3)2: dichlorobis(triphenylphosphine)palladium(II) • Pd(dba)2: bis(dibenzylideneacetone)palladium(0) • Pd2(dba)3: tris(dibenzylideneacetone)dipalladium(0) • Pd(dppf)Cl2: [1,1′-bis(diphenylphosphino)ferrocene]dichloropalladium(II) • Pd(PPh3)4: tetrakis(triphenylphosphine)palladium(0) • TEA: triethylamine • TFA: trifluoroacetic acid • THF: tetrahydrofuran • Xphos: 2-dicyclohexylphosphino-2′,4′,6′-triisopropylbiphenyl • Xphos Pd G3: (2-dicyclohexylphosphino-2′,4′,6′-triisopropyl-1,1′-biphenyl)[2-(2′-amino-1,1′-biphenyl)]palladium(II) methanesulfonic acid salt • 10% Pd/C: Palladium 10% on Carbon (wetted with ca. 55% water) • APS: aminopropylated silica gel • ODS: octadecyl-silylated silica gel • Method A: column chromatography with an aminopropylated silica gel column followed by a silica gel column • Chiral preparative column chromatography: chiral preparative column chromatography using YMC CHIRALART Cellulose-SB • Ref. No.: Reference Example Number • Str.: structural formula • Ex. No.: Example Number • Phys. data: physical data • ^1H-NMR: hydrogen nuclear magnetic resonance spectrum • CDCl3: chloroform-d1 • MS: mass spectrometry (The measured values in the tables were measured by electrospray ionization or multiionization using electrospray ionization-atmospheric pressure chemical ionization.) • Act.: activation rate of test substance at a compound concentration of 10 μM calculated by setting the fluorescence intensity obtained when human orexin A peptide was added at a concentration of 1 μM as 100% and the fluorescence intensity obtained when the medium alone was added as 0% • CHO: Chinese hamster ovary • HEPES: 2-[4-(2-hydroxyethyl)-1-piperazinyl]ethanesulfonic acid
A human OX2R sequence (Accession No. NM_001526.4) was inserted into the multiple cloning site of pcDNA3.4 (Life Technologies Japan Ltd.) to clone a plasmid vector for human OX2R expression. The plasmid was introduced into CHO-K1 cells using Lipofectamine 2000 (Life Technologies Japan Ltd.). Two days later, the transgenic CHO-K1 cells were passaged into 175T flasks and cultured selectively for 6 days. As a selection medium, Ham's F-12 Nutrient Mix (Life Technologies Japan Ltd.), containing Geneticin (registered trademark) (Life Technologies Japan Ltd.) at a final concentration of 1 mg/mL and inactivated fetal bovine serum (Biowest) at a final concentration of 10%, was used. After the selective culture, the cells were reseeded into 96-well plates, and a human OX2R-expressing cell line was obtained by limiting dilution.
The agonist effects of test substances on human OX2R were evaluated using the intracellular calcium concentration-change upon stimulation as an indicator. A day before measurement of the intracellular calcium concentrations, human OX2R-expressing cells suspended in a medium were seeded into 384-well plates at 5×10^3 cells/50 μL/well and cultured overnight in an incubator set at 37° C. and 5% CO2. After incubation, the medium was removed and replaced with 20 μL of a loading buffer. […]

| SMILES | Act. (%): activation rate of test substance [%] |
| --- | --- |
| CON(C)C(=O)[C@@]1(Cc2ccc(O)c(-c3ncc(F)cn3)c2)CC[C@H](NS(C)(=O)=O)C1 [Example 55, (1R,3S)-1-(3-(5-Fluoropyrimidin-2-yl)-4-hydroxybenzyl)-N-methoxy-N-methyl-3-(methylsulfonamido)cyclopentane-1-carboxamide] | 106 |
| CN(O)C(=O)[C@@]1(Cc2cccc(-c3ncccn3)c2)CC[C@H](NS(C)(=O)=O)C1 (relative stereo) [Example 30, (1R*,3S*)—N-Hydroxy-N-methyl-3-(methylsulfonamido)-1-(3-(pyrimidin-2-yl)benzyl)cyclopentane-1-carboxamide] | 48 |
| CON(C)C(=O)[C@@]1(Cc2cccc(-c3ncc(F)cn3)c2)C[C@@H](C)[C@H](NS(C)(=O)=O)C1 (relative stereo) [Example 44, (1R*,3R*,4R*)-1-(3-(5-Fluoropyrimidin-2-yl)benzyl)-N-methoxy-N,3-dimethyl-4-(methylsulfonamido)cyclopentane-1-carboxamide] | 96 |
| CON(C)C(=O)[C@@]1(Cc2ccc(F)c(-c3ccccc3F)c2)CC[C@H](NS(C)(=O)=O)C1 (relative stereo) [Example 3, (1R*,3S*)-1-((2′,6-Difluoro-[1,1′-biphenyl]-3-yl)methyl)-N-methoxy-N-methyl-3-(methylsulfonamido)cyclopentane-1-carboxamide] | 93 |
| CON(C)C(=O)[C@@]1(Cc2cccc(-c3ncc(F)cn3)c2)C[C@H](F)[C@H](NS(=O)(=O)C2CC2)C1 [Example 60, (1R,3R,4S)-3-(Cyclopropanesulfonamido)-4-fluoro-1-(3-(5-fluoropyrimidin-2-yl)benzyl)-N-methoxy-N-methylcyclopentane-1-carboxamide] | 94 |
| CON(C)C(=O)[C@]1(Cc2ccc(F)c(-c3ncc(F)cn3)c2)C[C@@H](NS(C)(=O)=O)C(F)(F)C1 (relative stereo) [Example 42] | 87 |
| CON(C)C(=O)[C@@]1(Cc2ccc(F)c(-c3ncc(F)cn3)c2)C[C@@H](F)[C@H](NS(C)(=O)=O)C1 [Example 64, (1R,3R,4R)-3-Fluoro-1-(4-fluoro-3-(5-fluoropyrimidin-2-yl)benzyl)-N-methoxy-N-methyl-4-(methylsulfonamido)cyclopentane-1-carboxamide] | 101 |
| CO[C@H]1CCN(C(=O)[C@@]2(Cc3cccc(-c4ccccc4)c3)CC[C@H](NS(C)(=O)=O)C2)C1 (relative stereo) [Example 70] | 27 |
| CO[C@@H]1C[C@](Cc2cccc(-c3ncc(F)cn3)c2)(C(=O)N(C)OC)C[C@H]1NS(C)(=O)=O [Example 68] | 91 |
| CS(=O)(=O)N[C@H]1CC[C@](Cc2cccc(-c3ccccc3)c2)(C(=O)N2CCCC2C(F)(F)F)C1 (relative stereo) [Example 71, N-((1S*,3R*)-3-([1,1′-Biphenyl]-3-ylmethyl)-3-(2-(trifluoromethyl)pyrrolidine-1-carbonyl)cyclopentyl)methanesulfonamide] | 41 |
| CON(C)C(=O)[C@]1(Cc2cccc(-c3ncc(F)cn3)c2)C[C@@H](NS(=O)(=O)N(C)C)C(F)(F)C1 (relative stereo) [Example 41] | 93 |
| COCCNC(=O)[C@@]1(Cc2cccc(-c3ccccc3)c2)CC[C@H](NS(C)(=O)=O)C1 (relative stereo) [Example 69] | 44 |
| CON(C)C(=O)[C@@]1(Cc2ccc(F)c(-c3ncc(F)cn3)c2)C[C@H](F)[C@H](NS(=O)(=O)N(C)C)C1 (relative stereo) [Example 34, (1R*,3R*,4S*)-3-((N,N-Dimethylsulfamoyl)amino)-4-fluoro-1-(4-fluoro-3-(5-fluoropyrimidin-2-yl)benzyl)-N-methoxy-N-methylcyclopentane-1-carboxamide] | 90 |
| CON(C)C(=O)C1(Cc2cccc(-c3ncccn3)c2)CCC(NS(C)(=O)=O)C1 (single isomer, unassigned) [Example 47, N-Methoxy-N-methyl-3-(methylsulfonamido)-1-(3-(pyrimidin-2-yl)benzyl)cyclopentane-1-carboxamide] | 52 |
| CON(C)C(=O)[C@@]1(Cc2cccc(-c3ccc(F)cn3)c2)CC[C@H](NS(C)(=O)=O)C1 (relative stereo) [Example 12, (1R*,3S*)-1-(3-(5-Fluoropyridin-2-yl)benzyl)-N-methoxy-N-methyl-3-(methylsulfonamido)cyclopentane-1-carboxamide] | 86 |
| CCS(=O)(=O)N[C@@H]1C[C@@](Cc2cc(-c3ncccn3)ccc2F)(C(=O)N(C)OC)C[C@@H]1F [Example 61, (1R,3R,4S)-3-(Ethylsulfonamido)-4-fluoro-1-(2-fluoro-5-(pyrimidin-2-yl)benzyl)-N-methoxy-N-methylcyclopentane-1-carboxamide] | 105 |
| CON(C)C(=O)[C@]1(Cc2cc(-c3ncc(F)cn3)ccc2F)C[C@@H](NS(C)(=O)=O)C(F)(F)C1 (relative stereo) [Example 43] | 93 |
| CON(C)C(=O)[C@@]1(Cc2ccc(Cl)c(-c3ncc(F)cn3)c2)C[C@H](F)[C@H](NS(C)(=O)=O)C1 [Example 62, (1R,3S,4R)-1-(4-Chloro-3-(5-fluoropyrimidin-2-yl)benzyl)-3-fluoro-N-methoxy-N-methyl-4-(methylsulfonamido)cyclopentane-1-carboxamide] | 96 |
| CS(=O)(=O)N[C@H]1CC[C@](Cc2cccc(-c3ccccc3)c2)(C(N)=O)C1 (relative stereo) [Example 72, (1R*,3S*)-1-([1,1′-Biphenyl]-3-ylmethyl)-3-(methylsulfonamido)cyclopentane-1-carboxamide] | 23 |
| CCS(=O)(=O)N[C@H]1CC[C@](Cc2ccc(F)c(-c3ncc(F)cn3)c2)(C(=O)N(C)OC)C1 [Example 52, (1R,3S)-3-(Ethylsulfonamido)-1-(4-fluoro-3-(5-fluoropyrimidin-2-yl)benzyl)-N-methoxy-N-methylcyclopentane-1-carboxamide] | 99 |
| CON(C)C(=O)[C@@]1(Cc2cccc(-c3cscn3)c2)CC[C@H](NS(C)(=O)=O)C1 (relative stereo) [Example 16] | 91 |
| CON(C)C(=O)[C@@]1(Cc2cccc(-c3ncc(F)cn3)c2)CC[C@H](NS(C)(=O)=O)C1 (relative stereo) [Example 17] | 99 |
| CON(C)C(=O)[C@@]1(Cc2cc(-c3ncc(F)cn3)ccc2F)C[C@H](F)[C@H](NS(C)(=O)=O)C1 (relative stereo) [Example 37, (1R*,3S*,4R*)-3-Fluoro-1-(2-fluoro-5-(5-fluoropyrimidin-2-yl)benzyl)-N-methoxy-N-methyl-4-(methylsulfonamido)cyclopentane-1-carboxamide] | 90 |

— patent publication US20260124201A1, “CYCLOPENTANE COMPOUND” (Kissei Pharmaceutical Co., Ltd., priority 2022, published 2026)
